Key:
Format in all cases: cell-based, human
[1] = system: panel comprised of 28 tumor cell lines (colorectal, breast, pancreatic, NSCLC, head and neck); assay: Cell-Titer Glo growth inhibition, tumor cell line panel
Experimental: The effect of 3 μM PQIP on cell growth for a panel of 26 tumor cell lines is shown. The EMT status for the cell lines is indicated, and those tumor cell lines which harbor a known activating mutation in PI3K are marked by a *. EMT status is defined here according to the transcriptional activity of CDH1, the gene encoding E-Cadherin, indicated by either the methylation status of the CDH1 promoter or the presence of CDH1 gene transcriptional repressor proteins (e.g. Snail, Zeb1). Methylation or high levels of transcriptional repressors is associated with silencing of CDH1, and is thus an indicator of a mesenchymal cell. Cell growth was measured using Cell Titer Glo (Promega), and measurements were taken 72 hours after dosing. Data are expressed as % of maximal tumor growth inhibition and are representative of three or more independent experiments. […]
For measuring cell viability, Cell-Titer Glo assay was used, which is available as a kit from Promega. The basis of the assay is a luminescent quantitation of ATP present in a cell culture plate well. […] The assay utilizes a substrate that binds ATP to produce a luminescent signal, which can be read on a luminometer. […] Results were calculated as a fraction of the DMSO controlled cells.

H441 cells = assay: Cell-Titer Glo cell viability / growth inhibition; details: H441 NSCLC cell line
Experimental: (§1) The NSCLC lines with IGF-1R, H292, H358, H322, H441, A549, Calu6, H460, H1703 and SW1573 were cultured in the appropriate ATCC recommended supplemented media. Cell extracts were prepared by detergent lysis ((50 mM Tris-HCl, pH8, 150 mM NaCl, 1% NP-40, 0.5% NaDeoxycholate, 0.1% SDS) containing protease and phosphatase inhibitors. The soluble protein concentration was determined by micro-BSA assay (Pierce, Rockford Ill.).
(§2) IGF-1R inhibitor Compound 66 (i.e. 3-(3-Azetidin-1-ylmethyl-cyclobutyl)-1-(2-phenyl-quinolin-7-yl)-imidazo[1,5-a]pyrazin-8-ylamine; see structure below) stock concentration was 10 mM in 100% DMSO (dimethyl sulfoxide). Serial dilutions (1:3 or 1:4) were used to establish the 50% inhibitory dose of IGF-1R inhibitor. Before dosing, inhibitor was diluted in 100% DMSO, and then added to the cells at desired final concentrations in duplicates. The final DMSO concentration was between 0.3-0.5%. Compound 66 was synthesized by the methods described in published International patent application number WO 2005/097800 A1.
(§3) For measuring cell viability, Cell-Titer Glo assay was used, which is available as a kit from Promega. The basis of the assay is a luminescent quantitation of ATP present in a cell culture plate well. In essence, the greater the number of viable cells in the well, the greater the level of ATP present. The assay utilizes a substrate that binds ATP to produce a luminescent signal, which can be read on a luminometer. Unless otherwise noted, the manufacturer's instructions were followed exactly. Briefly, on Day 1, cells were plated in 120 μl of 10% serum-containing growth media at a density of 4000 cells/well in a white polystyrene 96 well assay plate. On day 2, cells were treated with 15 μl of 10× concentration of the IGF-1R inhibitor (e.g. Compound 66, PQIP) or DMSO alone for a final well volume of […]. After 72 h incubation with the inhibitor, the cells were assayed. Results were calculated as a fraction of the DMSO controlled cells.

H358 cells = assay: Cell-Titer Glo cell viability / growth inhibition; details: H358 NSCLC cell line
Experimental: as §1, §2, §3

A549 cells = assay: Cell-Titer Glo cell viability / growth inhibition; details: A549 NSCLC cell line
Experimental: as §1, §2, §3

SW1573 cells = assay: Cell-Titer Glo cell viability / growth inhibition; details: SW1573 NSCLC cell line
Experimental: as §1, §2, §3

H292 cells = assay: Cell-Titer Glo cell viability / growth inhibition; details: H292 NSCLC cell line
Experimental: as §1, §2, §3

H460 cells = assay: Cell-Titer Glo cell viability / growth inhibition; details: H460 NSCLC cell line
Experimental: as §1, §2, §3

Row | SMILES | inhibition at 3 µM ([1]; Homo sapiens, 3 μM PQIP, any mesenchymal tumor cell line in the panel) [%] | dose dependence of growth inhibition ([1]; varying concentrations of PQIP, all cell lines (data not shown)) | sensitivity to Compound 66-mediated growth inhibition (H441 cells) | sensitivity to Compound 66-mediated growth inhibition (H358 cells) | sensitivity to Compound 66-mediated growth inhibition (A549 cells) | sensitivity to Compound 66-mediated growth inhibition (SW1573 cells) | sensitivity to Compound 66-mediated growth inhibition (H292 cells) | sensitivity to Compound 66-mediated growth inhibition (H460 cells)
1 | CN1CCN([C@H]2C[C@@H](c3nc(-c4ccc5ccc(-c6ccccc6)nc5c4)c4c(N)nccn43)C2)CC1 [PQIP, cis-3-[3-(4-Methyl-piperazin-1-yl)-cyclobutyl]1-(2-phenyl-quinolin-7-yl)-imidazo[1,5-a]pyrazin-8-ylamine] | ≤ 50 | dose-dependent | – | – | – | – | – | –
2 | Nc1nccn2c1c(-c1ccc3ccc(-c4ccccc4)nc3c1)nc2[C@H]1C[C@@H](CN2CCC2)C1 [Compound 66, 3-(3-Azetidin-1-ylmethyl-cyclobutyl)-1-(2-phenyl-quinolin-7-yl)-imidazo[1,5-a]pyrazin-8-ylamine] | – | – | sensitive | sensitive | intermediate sensitivity | relatively insensitive | sensitive | relatively insensitive

Reference: patent publication US8048621B2, “Biological markers predictive of anti-cancer response to insulin-like growth factor-1 receptor kinase inhibitors” (OSI Pharmaceuticals, LLC, priority 2007, dated 2011)
